According to the supplement of paper PMC11451515:

Columns and labels:
Conditions in all cases: 48 h
NOMO1 [1] = experiment: cell viability relative to DMSO control; higher = less cytotoxic
Outline: (§1)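 Viability values are per-plate percentages of DMSO wells, with background from cell-free wells. Library compounds in DMSO were pin-dosed, in an 11-point threefold series from 47 μM to 0.79 nM, onto NOMO1 or SEM (500 cells/well) or P12-Ichikawa (1000 cells/well) leukemia cells in 1536-well plates (5 μl). Those cells had been adapted for at least four passages in each medium, and CellTiter-Glo One luminescence was read after 48 h at 37°C.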

P12-Ichikawa [2] = experiment: as above
Outline: as §1

SEM cells [3] = experiment: as above
Outline: as §1

NOMO1 [4] = experiment: AUC of viability dose-response curve (% viability x log10 dose units); higher = less sensitive
Outline: (§2)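 Library compounds in DMSO were applied for 48 h at 37°C at 11 threefold doses (47 μM to 0.79 nM) to medium-adapted leukemia cells in 1536-well plates holding 500 or 1000 cells/well. Luminescence from CellTiter-Glo One was normalised plate by plate against DMSO and cell-free wells. Area under the curve came from trapezoidal integration of a log-logistic fit, after scaling curves that rose above full viability and discarding those that failed quality control. The fit had four parameters and used log10 doses.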

P12-Ichikawa [5] = experiment: as above
Outline: as §2

SEM cells [6] = experiment: as above
Outline: as §2

O=C(O)CCn1c2c(c3ccccc31)C[C@H](N[S+](=O)([O-])c1ccc(F)cc1)CC2
cell viability [%]
Conditions | NOMO1 [1] | P12-Ichikawa [2] | SEM cells [3]
HPLM + 10% dialyzed FBS, 0.000781 µM | 115 | 117 | 112
HPLM + 10% dialyzed FBS, 0.00234 µM | 112 | 113 | 115
HPLM + 10% dialyzed FBS, 0.00702 µM | 120 | – | 112
HPLM + 10% dialyzed FBS, 0.0211 µM | 124 | 110 | 110
HPLM + 10% dialyzed FBS, 0.0632 µM | 113 | 113 | 111
HPLM + 10% dialyzed FBS, 0.19 µM | 109 | 106 | 106
HPLM + 10% dialyzed FBS, 0.569 µM | 104 | 113 | 96.8
HPLM + 10% dialyzed FBS, 1.71 µM | 105 | 111 | 126
HPLM + 10% dialyzed FBS, 5.12 µM | 116 | 106 | 118
HPLM + 10% dialyzed FBS, 15.4 µM | 88.3 | 100 | 107
HPLM + 10% dialyzed FBS, 46.1 µM | 72.2 | 73.6 | 104
RPMI 5 mM glucose + 10% FBS, 0.000781 µM | 102 | 119 | 120
RPMI 5 mM glucose + 10% FBS, 0.00234 µM | 105 | 120 | 102
RPMI 5 mM glucose + 10% FBS, 0.00702 µM | 108 | 121 | 118
RPMI 5 mM glucose + 10% FBS, 0.0211 µM | 98.2 | 121 | 109
RPMI 5 mM glucose + 10% FBS, 0.0632 µM | 114 | 120 | 122
RPMI 5 mM glucose + 10% FBS, 0.19 µM | 99 | 122 | 108
RPMI 5 mM glucose + 10% FBS, 0.569 µM | 99.2 | 122 | 86.7
RPMI 5 mM glucose + 10% FBS, 1.71 µM | 98.7 | 111 | 117
RPMI 5 mM glucose + 10% FBS, 5.12 µM | 94.2 | 114 | 104
RPMI 5 mM glucose + 10% FBS, 15.4 µM | 102 | 115 | 107
RPMI 5 mM glucose + 10% FBS, 46.1 µM | 90.5 | 95.5 | 96.4
RPMI 5 mM glucose + 10% dialyzed FBS, 0.000781 µM | 99.2 | 110 | 112
RPMI 5 mM glucose + 10% dialyzed FBS, 0.00234 µM | 107 | 116 | 119
RPMI 5 mM glucose + 10% dialyzed FBS, 0.00702 µM | 120 | 116 | 119
RPMI 5 mM glucose + 10% dialyzed FBS, 0.0211 µM | 102 | 114 | 123
RPMI 5 mM glucose + 10% dialyzed FBS, 0.0632 µM | 95.8 | 115 | 122
RPMI 5 mM glucose + 10% dialyzed FBS, 0.19 µM | 102 | 103 | 120
RPMI 5 mM glucose + 10% dialyzed FBS, 0.569 µM | 109 | 109 | 90.6
RPMI 5 mM glucose + 10% dialyzed FBS, 1.71 µM | 98.1 | 108 | 106
RPMI 5 mM glucose + 10% dialyzed FBS, 5.12 µM | 103 | 102 | 128
RPMI 5 mM glucose + 10% dialyzed FBS, 15.4 µM | 91.8 | 92.2 | 120
RPMI 5 mM glucose + 10% dialyzed FBS, 46.1 µM | 85.9 | 66.9 | 124

AUC of viability dose-response curve
Conditions | NOMO1 [4] | P12-Ichikawa [5] | SEM cells [6]
HPLM + 10% dialyzed FBS | 458 | 465 | 471
RPMI 5 mM glucose + 10% FBS | 457 | 468 | 449
RPMI 5 mM glucose + 10% dialyzed FBS | 448 | 453 | 472

CC(C)c1cnn2c(NCc3ccccc3)cc(NCCCCCCN)nc12
cell viability [%]
Conditions | NOMO1 [1] | P12-Ichikawa [2] | SEM cells [3]
HPLM + 10% dialyzed FBS, 0.000781 µM | – | 110 | 121
HPLM + 10% dialyzed FBS, 0.00234 µM | – | 124 | 126
HPLM + 10% dialyzed FBS, 0.00702 µM | – | 131 | 121
HPLM + 10% dialyzed FBS, 0.0211 µM | – | 125 | 117
HPLM + 10% dialyzed FBS, 0.0632 µM | – | 122 | 111
HPLM + 10% dialyzed FBS, 0.19 µM | – | 127 | 111
HPLM + 10% dialyzed FBS, 0.569 µM | – | 116 | 119
HPLM + 10% dialyzed FBS, 1.71 µM | – | 113 | 120
HPLM + 10% dialyzed FBS, 5.12 µM | – | 116 | 118
HPLM + 10% dialyzed FBS, 15.4 µM | – | 110 | 106
HPLM + 10% dialyzed FBS, 46.1 µM | – | 76.8 | 84.9
RPMI 5 mM glucose + 10% FBS, 0.000781 µM | 115 | – | 89.8
RPMI 5 mM glucose + 10% FBS, 0.00234 µM | 107 | – | 77.3
RPMI 5 mM glucose + 10% FBS, 0.00702 µM | 117 | – | 105
RPMI 5 mM glucose + 10% FBS, 0.0211 µM | 121 | – | 88.1
RPMI 5 mM glucose + 10% FBS, 0.0632 µM | 109 | – | 82.3
RPMI 5 mM glucose + 10% FBS, 0.19 µM | 122 | – | 93.9
RPMI 5 mM glucose + 10% FBS, 0.569 µM | 112 | – | 83.5
RPMI 5 mM glucose + 10% FBS, 1.71 µM | 114 | – | 96.9
RPMI 5 mM glucose + 10% FBS, 5.12 µM | 116 | – | 88.2
RPMI 5 mM glucose + 10% FBS, 15.4 µM | 106 | – | 76.3
RPMI 5 mM glucose + 10% FBS, 46.1 µM | 101 | – | 77.4
RPMI 5 mM glucose + 10% dialyzed FBS, 0.000781 µM | 115 | – | 108
RPMI 5 mM glucose + 10% dialyzed FBS, 0.00234 µM | 116 | – | 109
RPMI 5 mM glucose + 10% dialyzed FBS, 0.00702 µM | 104 | – | 120
RPMI 5 mM glucose + 10% dialyzed FBS, 0.0211 µM | 125 | – | 121
RPMI 5 mM glucose + 10% dialyzed FBS, 0.0632 µM | 119 | – | 98.4
RPMI 5 mM glucose + 10% dialyzed FBS, 0.19 µM | 118 | – | 117
RPMI 5 mM glucose + 10% dialyzed FBS, 0.569 µM | 114 | – | 112
RPMI 5 mM glucose + 10% dialyzed FBS, 1.71 µM | 107 | – | 115
RPMI 5 mM glucose + 10% dialyzed FBS, 5.12 µM | 110 | – | 96.4
RPMI 5 mM glucose + 10% dialyzed FBS, 15.4 µM | 101 | – | 114
RPMI 5 mM glucose + 10% dialyzed FBS, 46.1 µM | 110 | – | 81.8

AUC of viability dose-response curve
Conditions | NOMO1 [4] | P12-Ichikawa [5] | SEM cells [6]
HPLM + 10% dialyzed FBS | 464 | 464 | 465
RPMI 5 mM glucose + 10% FBS | 470 | 442 | 416
RPMI 5 mM glucose + 10% dialyzed FBS | 463 | 439 | 471
